SMILES strings stand for the structures. Values after ≈ are worked out from the molar mass of the structure shown. Where two headings read alike, the source gives them in different places.

For data set [1], the system named is NOX2. Particulars: read-out: IC50 for NOX2, originally reported; cited from earlier work.
The nature of data set [2]: Rat liver microsomal stability. The format is in vitro ADME. Particulars: for half-life: SD, rat, liver microsomes, read-out: Rat_SD/Microsomes t1/2 (m). As for the experimental part: (§1) The rat liver microsomal stability, parallel artificial membrane permeability assay (PAMPA), and aqueous kinetic solubility assay in phosphate-buffered saline (PBS) buffer were performed as described in the indicated references.

Another data set deals with NOX1-NOX5. The data set is described as follows: Expi293 whole cell assays, comparison across panel of NOX family members. The format is cell-based, human. As to the method:
Given concerns about previous assays for specific NOX family members we here report the first use of the Expi293 Expression System (Thermo Scientific) to overexpress NOX1, 2, 3, 4, and 5 in excess of any endogenous NOX proteins present in these cells. Transfections were performed following the manufacturer's instructions using the plasmids for each NOX as described in Supplemental Table 2 except that the enhancer solution provided with the Expi293 system was not used because it promoted enzyme activation.
After the times indicated in Supplemental Table 2, cells were washed and 50,000 added per well of a white 96-well plate (Greiner) along with 50 μM Luminol and 2.5 U horseradish peroxidase/mL in a volume of 90 μl for NOX1, NOX2, and NOX5. Inhibitors or vehicle controls were added and cells were incubated for 20 min at 37 °C prior to activation with the indicated stimuli. For NOX3 and NOX4 (constitutively active), cells were incubated with inhibitor or vehicle control prior to the addition of luminol and HRP. Chemiluminescence was measured every 2 min for 1 s per well at 37 °C in a Varioscan Multimode reader. AUC data were analyzed using GraphPad Prism using non-linear regression analysis after expressing relative to control alone (maximum ROS production).

A short description of data set [3]: Aqueous kinetic solubility in PBS buffer. It counts as physicochemical. As for the experimental part: as §1
The target of the next data set is T1, Bovine Xanthine Oxidase (Bos taurus, UniProt P80457).
T1 construct: purchased Sigma
T1 sequence (P80457 whole entry): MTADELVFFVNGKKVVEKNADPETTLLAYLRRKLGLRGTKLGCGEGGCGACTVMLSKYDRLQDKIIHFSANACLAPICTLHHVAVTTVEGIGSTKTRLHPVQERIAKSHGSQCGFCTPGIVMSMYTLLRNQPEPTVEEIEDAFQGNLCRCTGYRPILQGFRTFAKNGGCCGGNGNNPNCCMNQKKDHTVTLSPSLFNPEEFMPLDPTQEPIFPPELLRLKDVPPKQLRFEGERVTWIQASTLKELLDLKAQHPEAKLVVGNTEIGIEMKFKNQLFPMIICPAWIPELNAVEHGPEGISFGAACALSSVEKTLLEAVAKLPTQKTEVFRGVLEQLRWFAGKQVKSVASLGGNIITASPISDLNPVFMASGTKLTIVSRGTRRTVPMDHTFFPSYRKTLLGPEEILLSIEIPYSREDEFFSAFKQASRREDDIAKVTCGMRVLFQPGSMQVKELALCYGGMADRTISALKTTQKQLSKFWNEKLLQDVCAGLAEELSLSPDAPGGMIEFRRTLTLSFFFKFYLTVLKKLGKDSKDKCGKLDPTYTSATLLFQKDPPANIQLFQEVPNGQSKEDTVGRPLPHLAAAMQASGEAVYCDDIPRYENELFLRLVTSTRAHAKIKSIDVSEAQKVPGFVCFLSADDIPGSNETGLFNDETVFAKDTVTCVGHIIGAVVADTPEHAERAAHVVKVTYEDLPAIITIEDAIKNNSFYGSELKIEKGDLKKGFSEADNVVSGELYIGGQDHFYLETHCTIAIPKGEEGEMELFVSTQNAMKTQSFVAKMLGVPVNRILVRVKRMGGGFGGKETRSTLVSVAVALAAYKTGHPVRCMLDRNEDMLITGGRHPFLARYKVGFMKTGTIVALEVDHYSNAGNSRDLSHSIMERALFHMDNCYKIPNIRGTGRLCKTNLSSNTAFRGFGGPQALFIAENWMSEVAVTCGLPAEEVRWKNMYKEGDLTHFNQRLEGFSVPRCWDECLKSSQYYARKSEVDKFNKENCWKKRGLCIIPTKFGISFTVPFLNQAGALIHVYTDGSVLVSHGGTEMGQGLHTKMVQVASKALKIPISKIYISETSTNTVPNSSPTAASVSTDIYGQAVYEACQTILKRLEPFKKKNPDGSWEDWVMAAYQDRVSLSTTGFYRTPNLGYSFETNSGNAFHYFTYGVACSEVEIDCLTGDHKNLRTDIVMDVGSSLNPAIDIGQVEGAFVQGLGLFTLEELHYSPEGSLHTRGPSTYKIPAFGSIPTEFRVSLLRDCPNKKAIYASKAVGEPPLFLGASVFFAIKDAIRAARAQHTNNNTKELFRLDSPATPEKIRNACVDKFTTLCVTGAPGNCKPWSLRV
Put plainly: Xanthine oxidase / hypoxanthine luminol chemiluminescence assay. The format is biochemical. The settings on record: xanthine oxidase with hypoxanthine; mean ± SD, n in cell; read-out: X/XO IC50. As to the method:
Bovine Xanthine Oxidase (Sigma) was dialyzed in PBS to remove ammonium sulfate and stored at 4 °C. Hypoxanthine was prepared by heating in DMSO. Reactions were prepared by diluting xanthine oxidase in HBSS (final concentration 1.25 mU/mL) that contained 50 μM luminol and were preincubated 5 min with control or inhibitor before the addition of hypoxanthine at a final concentration of 0.5 mM. Luminescence was measured at 24 °C as described above.

The target in data set [4] is T2, NOX2 (Mus musculus, UniProt Q61093).
T2 construct: relative potencies in primary mouse neutrophils enriched from bone marrow; endogenous in cells; host or cells: primary mouse bone-marrow granulocytes
T2 sequence (Q61093 2-570 limits assumed): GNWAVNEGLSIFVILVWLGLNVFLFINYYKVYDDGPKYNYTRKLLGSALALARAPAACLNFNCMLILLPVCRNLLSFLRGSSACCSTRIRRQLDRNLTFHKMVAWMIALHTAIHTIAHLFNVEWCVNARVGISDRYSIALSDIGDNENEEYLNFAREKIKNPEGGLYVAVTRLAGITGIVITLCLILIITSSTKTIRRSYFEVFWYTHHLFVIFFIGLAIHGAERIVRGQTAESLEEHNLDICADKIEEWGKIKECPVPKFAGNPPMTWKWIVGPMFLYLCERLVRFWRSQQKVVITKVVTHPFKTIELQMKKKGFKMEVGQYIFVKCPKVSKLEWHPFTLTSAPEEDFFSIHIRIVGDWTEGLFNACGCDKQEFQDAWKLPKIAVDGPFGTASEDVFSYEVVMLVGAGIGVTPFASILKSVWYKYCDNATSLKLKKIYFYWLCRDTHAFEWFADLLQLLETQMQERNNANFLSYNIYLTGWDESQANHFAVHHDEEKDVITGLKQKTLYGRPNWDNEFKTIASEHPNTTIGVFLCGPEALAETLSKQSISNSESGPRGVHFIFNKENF
T2 sequence (Q61462 2-192 partner limits assumed): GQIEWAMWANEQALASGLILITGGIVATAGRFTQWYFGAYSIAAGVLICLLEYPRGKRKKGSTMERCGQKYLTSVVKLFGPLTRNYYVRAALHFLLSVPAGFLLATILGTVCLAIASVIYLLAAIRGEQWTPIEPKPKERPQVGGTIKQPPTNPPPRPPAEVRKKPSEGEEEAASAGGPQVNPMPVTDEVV
The data set is described as follows: NOX2 activity in primary mouse neutrophils enriched from bone marrow. The format is cell-based. The settings on record: SD, n = 8 mice. As for the experimental part: (§2) Human blood was obtained after informed consent by the Department of Transfusion Medicine (NIH Clinical Center) and provided as de-identified specimens. Human granulocytes were isolated using Percoll density fractionation as described and NOX2 activity was assessed in white polypropylene flat bottom 96 well plates following 15 min of preincubation at 37 °C with compounds or vehicle controls using 50 μM luminol as a chemiluminescence enhancer in an assay volume of 100 μl RPMI1640 with 1.1 × 10^5 cells/well in Varioskan Lux luminometer for 30 cycles of 1 s per well (approximately 1 h).
Mouse granulocytes were isolated from bone marrow essentially as described except bones were not sterilized in ethanol and marrow was not flushed through a 100 μm strainer. Furthermore, RPMI1640 was supplemented with 10% FBS, 2 mM EDTA, and 25 mM HEPES buffer and penicillin/streptomycin was omitted. Polymorphonuclear leukocytes (PMN) concentration and purity (>90% granulocytes) were assessed microscopically using 3% acetic acid and a hemacytometer. NOX2 activity was assessed as described above with human granulocytes.

A short description of data set [5]: Parallel artificial membrane permeability assay (PAMPA). The format is in vitro ADME. Particulars: for Papp: pH 7.4, PAMPA, pH7.4, read-out: Permeability(pH7.4) (PAMPA_Pion_Lipid 1e-6 cm/s). As for the experimental part:
as §1

Another data set has as its system xanthine oxidase. The settings on record: cited from earlier work.
Data set [6] addresses T3, NOX2 (Homo sapiens, UniProt P04839).
T3 sequence (P04839 2-570 limits assumed): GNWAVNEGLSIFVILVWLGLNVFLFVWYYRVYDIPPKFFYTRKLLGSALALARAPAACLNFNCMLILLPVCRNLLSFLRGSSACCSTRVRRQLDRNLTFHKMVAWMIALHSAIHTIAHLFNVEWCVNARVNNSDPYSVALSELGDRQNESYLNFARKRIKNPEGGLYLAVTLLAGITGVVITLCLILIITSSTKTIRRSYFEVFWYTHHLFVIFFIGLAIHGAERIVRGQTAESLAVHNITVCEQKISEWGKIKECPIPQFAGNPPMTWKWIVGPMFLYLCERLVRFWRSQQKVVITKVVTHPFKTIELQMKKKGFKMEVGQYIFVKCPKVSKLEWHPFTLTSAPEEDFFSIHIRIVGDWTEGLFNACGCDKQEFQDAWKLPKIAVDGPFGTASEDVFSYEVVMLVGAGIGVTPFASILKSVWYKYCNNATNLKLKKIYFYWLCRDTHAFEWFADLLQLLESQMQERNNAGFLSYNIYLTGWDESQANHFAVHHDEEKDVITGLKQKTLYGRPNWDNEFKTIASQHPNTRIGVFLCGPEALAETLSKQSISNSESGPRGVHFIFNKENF
T3 sequence (P13498 2-195 partner limits assumed): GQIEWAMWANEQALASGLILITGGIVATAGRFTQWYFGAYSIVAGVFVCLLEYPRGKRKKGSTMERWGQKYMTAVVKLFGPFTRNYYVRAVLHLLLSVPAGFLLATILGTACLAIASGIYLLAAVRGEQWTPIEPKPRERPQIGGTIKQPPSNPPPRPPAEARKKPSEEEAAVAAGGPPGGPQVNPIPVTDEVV
The data set is described as follows: NOX2 activity in primary human granulocytes (PMN), luminol chemiluminescence. It counts as cell-based. Also on record: When tested against NOX2 in primary human neutrophils; endogenous in cells; host or cells: primary human granulocytes (PMN) from donor blood. The settings on record: mean ± SD, n in cell; read-out: NOX-2 IC50 from PMN. As to the method: as §2

[7] abbreviates: aqueous buffer, kinetic from dmso stock, read-out: Solubility.

`CC(C)n1cc(-c2ccc3c(c2)N(C)CC3)c2c(NS(=O)(=O)c3ccn(C)n3)ccnc21` [GSK2795039, reference compound]: the IC50 was […] in the data set with NOX2 [1], […] on Bovine Xanthine Oxidase and 2170 ± 1110 nM against NOX2 [4]. In addition, the “Rat_SD/Microsomes t1/2 (m)” value in data set [2] is 1.02 m. In the data set with NOX1-NOX5, the “differences in activity across the panel of NOX family members” value was “unable to demonstrate significant differences in activity”. Moreover, the “solubility” value in [3] amounted to 36.7 µg/mL (≈ 81.5 µM). Moreover, the “Permeability(pH7.4) (PAMPA_Pion_Lipid 1e-6 cm/s)” value in [5] is […]. In addition, the “greater concentrations required to inhibit xanthine oxidase than NOX2” value in the data set with xanthine oxidase is […].

For `Cn1ccc([S+](=O)([O-])Nc2ccnc3c2c(-c2ccc4c(c2)NCC4)cn3C2CC2)n1` [NCGC00601851, CN1C=CC(=N1)[S+]([O-])(=O)NC2=C3C(=CN(C4CC4)C3=NC=C2)C5=CC6=C(CCN6)C=C5], the half-life in data set [2] worked out at 4.5 min. The IC50 was found to be 1530 ± 1360 nM on NOX2 [6] and 7520 ± 10500 nM on Bovine Xanthine Oxidase. Also, the solubility in data set [3] (setting [7]) was above 64 µg/mL. Besides, the Papp in data set [5] was 191 ×10⁻⁶ cm/s.

For the compound `CCn1cc(-c2ccc3c(c2)N(C2CC2)CC3)c2c(N[S+](=O)([O-])c3ccn(C)n3)ccnc21` [NCGC00650067, CCN1C=C(C2=C(N[S+]([O-])(=O)C3=NN(C)C=C3)C=CN=C12)C4=CC5=C(CCN5C6CC6)C=C4], in data set [2], the half-life came out at 1 min. In addition, the IC50 at NOX2 [6] turned out to be 2400 ± 2260 nM; on Bovine Xanthine Oxidase it was 7610 ± 10200 nM. In addition, the solubility in data set [3] (setting [7]) stood at 13.9 µg/mL (≈ 30 µM). The Papp in data set [5] worked out at 819 ×10⁻⁶ cm/s.

Consider `Cn1ccc([S+](=O)([O-])Nc2ccnc3c2c(-c2ccc4c(c2)N(C2CC2)CC4)cn3CC2CC2)n1` [NCGC00650063, CN1C=CC(=N1)[S+]([O-])(=O)NC2=C3C(=CN(CC4CC4)C3=NC=C2)C5=CC6=C(CCN6C7CC7)C=C5], for which the half-life in data set [2] stood at 1.1 min. The values for the IC50 at NOX2 [6] and on Bovine Xanthine Oxidase were 3020 ± 2960 nM and 360 ± 510 nM, respectively. Moreover, the solubility in [3] (setting [7]) worked out at 1.4 µg/mL (≈ 2.87 µM). Besides, the Papp in data set [5] was 1230 ×10⁻⁶ cm/s.

On to `Cn1ccc([S+](=O)([O-])Nc2ccnc3c2c(-c2ccc4c(c2)C(O)CC4)cn3C2CC2)n1` (stereo not drawn) [NCGC00650073, CN1C=CC(=N1)[S+]([O-])(=O)NC2=C3C(=CN(C4CC4)C3=NC=C2)C5=CC6=C(CCC6O)C=C5], for which the half-life in data set [2] is 18.2 min. Further, the IC50 on NOX2 [6] is above 20000 nM; at Bovine Xanthine Oxidase it was 19000 nM. In addition, the solubility in data set [3] (setting [7]) came to 31.1 µg/mL (≈ 69.2 µM). Moreover, the Papp in data set [5] is 182 ×10⁻⁶ cm/s.

`CN(C)C1CCc2ccc(-c3cn(C4CC4)c4nccc(N[S+](=O)([O-])c5ccn(C)n5)c34)cc21` (stereo not drawn) [NCGC00650075, CN(C)C1CCC2=C1C=C(C=C2)C3=CN(C4CC4)C5=NC=CC(N[S+]([O-])(=O)C6=NN(C)C=C6)=C35]: in data set [2], the half-life was 14 min. In addition, the IC50 came to 55.5 nM on NOX2 [6] and 3200 nM on Bovine Xanthine Oxidase. In [3] (setting [7]), the solubility stood at 39.7 µg/mL (≈ 83.3 µM). In data set [5], the Papp turned out to be 293 ×10⁻⁶ cm/s.

For the compound `Cn1ccc([S+](=O)([O-])Nc2ccnc3c2c(-c2ccc4c(c2)C(NC(=O)OC(C)(C)C)CC4)cn3C2CC2)n1` (stereo not drawn) [NCGC00650021, CN1C=CC(=N1)[S+]([O-])(=O)NC2=C3C(=CN(C4CC4)C3=NC=C2)C5=CC6=C(CCC6NC(=O)OC(C)(C)C)C=C5], the half-life in data set [2] was 5.7 min. Moreover, the IC50 was 2420 nM at NOX2 [6] and 4430 nM on Bovine Xanthine Oxidase. In addition, in data set [3] (setting [7]), the solubility is 26.2 µg/mL (≈ 47.8 µM). For the same compound, in data set [5], the Papp stood at 1940 ×10⁻⁶ cm/s.

Turning to `Cn1ccc([S+](=O)([O-])Nc2ccnc3c2c(-c2ccc4c(c2)N(C2CC2)CC4)cn3CC2CCOCC2)n1` [NCGC00650068, CN1C=CC(=N1)[S+]([O-])(=O)NC2=C3C(=CN(CC4CCOCC4)C3=NC=C2)C5=CC6=C(CCN6C7CC7)C=C5], in data set [2], the half-life was found to be 0.9 min. The IC50 is 11800 nM at NOX2 [6] and 2300 nM at Bovine Xanthine Oxidase. In addition, the solubility in data set [3] (setting [7]) stood at 13.1 µg/mL (≈ 24.6 µM). The Papp in data set [5] worked out at 907 ×10⁻⁶ cm/s.

For the compound `CC(n1cc(-c2ccc3c(c2)N(C)CC3)c2c(N[S+](=O)([O-])c3ccn(C)n3)ccnc21)C(F)(F)F` (stereo not drawn) [NCGC00600887, CC(N1C=C(C2=C(N[S+]([O-])(=O)C3=NN(C)C=C3)C=CN=C12)C4=CC5=C(CCN5C)C=C4)C(F)(F)F], the half-life in data set [2] was determined as 3.3 min. The IC50 is 541 nM at NOX2 [6] and 872 nM on Bovine Xanthine Oxidase. In addition, the solubility in data set [3] (setting [7]) worked out at 21.9 µg/mL (≈ 43.4 µM). Further, the Papp in data set [5] came to 629 ×10⁻⁶ cm/s.

(Values after publication PMC9894920, “Development of an improved and specific inhibitor of NADPH oxidase 2 to treat traumatic brain injury” (Redox Biology, 2023).)
